This passage reports IC50 results from EP0900210B1, “ANTIVIRALLY ACTIVE HETEROCYCLIC AZAHEXANE DERIVATIVES” (Novartis AG, priority 1996, dated 1997).

The target in the experiment is T1, HIV-1-protease (Human immunodeficiency virus type 1 group M subtype B, UniProt P04585).
T1 construct: made in house
The experiment is described as follows: Inhibition of HIV-1-protease with icosapeptide substrate […] (HPLC). The experiment is classed as biochemical. Particulars: icosapeptide […] 122 µM, 20 mM MES pH 6.0, one hour at 37°C; read-out: IC50. The protocol: The inhibitory action of the compounds of formula I on the proteolytic activity of HIV-1-protease can be shown, for example, according to known procedures (see A. D. Richards et al., J. Biol. Chem. 265(14), 7733-7736 (1990)). In that method the inhibition of the action of HIV-1-protease (preparation: see S. Billich et al., J. Biol. Chem. 263(34), 17905-17908 (1990)) is measured in the presence of the icosapeptide […] (a synthetic substrate of HIV-1-protease, prepared by peptide synthesis in accordance with known procedures (see J. Schneider et al., Cell 54, 363-368 (1988)), which contains as substrate analogue one of the cleavage sites of the gag-precursor protein (natural substrate of HIV-1-protease). That substrate and its cleavage products are analysed by high performance liquid chromatography (HPLC).
The test compound is dissolved in dimethyl sulfoxide. The enzymatic test is carried out by adding suitable dilutions of the inhibitor in 20 mM β-morpholinoethanesulfonic acid (MES) buffer pH 6.0 to the test mixture. That mixture consists of the above-mentioned icosapeptide (122 µM) in 20 mM MES-buffer pH 6.0. 100 µl are used per test batch. The reaction is started by the addition of […] of HIV-1-protease solution and is stopped after one hour's incubation at 37°C by the addition of 10 µl of 0.3M HClO4. After centrifugation of the sample at 10 000 x g for 5 minutes, 20 µl of the resulting supernatant are applied to a 125 x 4.6 mm Nucleosil® C18-5m-HPLC column (reversed-phase material supplied by Macherey & Nagel, Düren, FRG, based on silica gel that has been charged with C18alkyl chains). The uncleaved icosapeptide and its cleavage products are eluted from the column by means of the following gradient: 100 % eluant 1 → 50 % eluant 1 + 50 % eluant 2 (eluant 1: 10 % acetonitrile, 90 % H2O, 0.1 % trifluoroacetic acid (TFA); eluant 2: 75 % acetonitrile, 25 % H2O, 0.08 % TFA) for 15 minutes, throughflow rate 1 ml/min. The quantification of the eluted peptide fragments is carried out by measuring the peak height of the cleavage product at 215 nm.
Using the test system described above with the icosapeptide […], the IC50 values given below are obtained for the following Examples: […]

The structures appear in SMILES notation.

Regarding `CCOC(=O)N[C@H](C(=O)NN(Cc1ccc(-c2nccs2)cc1)C[C@H](O)[C@H](Cc1ccccc1)NC(=O)[C@@H](NC(=O)OC)C(C)C)C(C)C` [Example 19, 1-[4-(Thiazol-2-yl)-phenyl]-4(S)-hydroxy-2-N-(N-ethoxycarbonyl-(L)-valyl)amino-5(S)-N-(N-methoxycarbonyl-(L)-valyl)amino-6-phenyl-2-azahexane], the IC50 came out at 0.022 µM. Under `COC(=O)N[C@H](C(=O)N[C@@H](Cc1ccccc1)[C@@H](O)CN(Cc1ccc(-c2nccs2)cc1)NC(=O)[C@@H](NC(=O)OC)C(C)C)C(C)C` [Example 20, 1-[4-(Thiazol-2-yl)-phenyl]-4(S)-hydroxy-5(S)-2,5-bis[N-(N-methoxycarbonyl-(L)-valyl)amino]-6-phenyl-2-azahexane] stands 0.015 µM; under `CC[C@H](C)[C@H](NC(=O)OC)C(=O)N[C@@H](Cc1ccccc1)[C@@H](O)CN(Cc1ccc(-c2nccs2)cc1)NC(=O)[C@@H](NC(=O)OC)C(C)(C)C` [Example 21, 1-[4-(Thiazol-2-yl)-phenyl]-4(S)-hydroxy-2-N-(N-methoxycarbonyl-(L)-tert-leucyl)amino-5(S)-N-(N-methoxycarbonyl-(L)-iso-leucyl)amino-6-phenyl-2-azahexane], 0.043 µM. `CCOC(=O)N[C@H](C(=O)NN(Cc1ccc(-c2nccs2)cc1)C[C@H](O)[C@H](Cc1ccccc1)NC(=O)[C@@H](NC(=O)OC)[C@@H](C)CC)C(C)C` [Example 22, 1-[4-(Thiazol-2-yl)-phenyl]-4(S)-hydroxy-2-N-(N-ethoxycarbonyl-(L)-valyl)amino-5(S)-N-(N-methoxycarbonyl-(L)-iso-leucyl)amino-6-phenyl-2-azahexane]: the IC50 is 0.04 µM. As to `CC[C@H](C)[C@H](NC(=O)OC)C(=O)N[C@@H](Cc1ccccc1)[C@@H](O)CN(Cc1ccc(-c2nccs2)cc1)NC(=O)[C@@H](NC(=O)OC)C(C)C` [Example 23, 1-[4-(Thiazol-2-yl)-phenyl]-4(S)-hydroxy-2-N-(N-methoxycarbonyl-(L)-valyl)amino-5(S)-N-(N-methoxycarbonyl-(L)-iso-leucyl)amino-6-phenyl-2-azahexane], the IC50 is 0.034 µM. In the case of `CC[C@H](C)[C@H](NC(=O)OC)C(=O)N[C@@H](Cc1ccccc1)[C@@H](O)CN(Cc1ccc(-c2nccs2)cc1)NC(=O)[C@H](CSC)NC(=O)OC` [Example 24, 1-[4-(Thiazol-2-yl)-phenyl]-4(S)-hydroxy-2-N-(N-methoxycarbonyl-(L)-S-methylcysteinyl)amino-5(S)-N-(N-methoxycarbonyl-(L)-iso-leucyl)amino-6-phenyl-2-azahexane], the IC50 worked out at 0.05 µM. With `COC(=O)N[C@H](C(=O)N[C@@H](Cc1ccccc1)[C@@H](O)CN(Cc1ccc(-c2nnn(C(C)(C)c3ccccc3)n2)cc1)NC(=O)[C@@H](NC(=O)OC)C(C)(C)C)C(C)(C)C` [Example 25, 1-{4-[2-(1-Methyl-1-phenyl-ethyl)-2H-tetrazol-5-yl]-phenyl}-4(S)-hydroxy-5(S)-2,5-bis[N-(N-methoxycarbonyl-(L)-tert-leucyl)amino]-6-phenyl-2-azahexane], the IC50 stood at 0.1 µM. As to `COC(=O)N[C@H](C(=O)N[C@@H](Cc1ccccc1)[C@@H](O)CN(Cc1ccc(-c2nnn[nH]2)cc1)NC(=O)[C@@H](NC(=O)OC)C(C)(C)C)C(C)(C)C` [Example 26, 1-[4-(Tetrazol-5-yl)-phenyl]-4(S)-hydroxy-5(S)-2,5-bis[N-(N-methoxycarbonyl-(L)-tert-leucyl)amino]-6-phenyl-2-azahexane], the IC50 amounted to 0.021 µM. To `COC(=O)N[C@H](C(=O)N[C@@H](Cc1ccccc1)[C@@H](O)CN(Cc1ccc(-c2nnn(C)n2)cc1)NC(=O)[C@@H](NC(=O)OC)C(C)(C)C)C(C)(C)C` [Example 27, 1-[4-(2-Methyl-2H-tetrazol-5-yl)-phenyl]-4(S)-hydroxy-5(S)-2,5-bis[N-(N-methoxycarbonyl-(L)-tert-leucyl)amino]-6-phenyl-2-azahexane] belongs 0.027 µM. Under `CC[C@H](C)[C@H](NC(=O)OC)C(=O)NN(Cc1ccc(-c2nnn(C(C)(C)c3ccccc3)n2)cc1)C[C@H](O)[C@H](Cc1ccccc1)NC(=O)[C@@H](NC(=O)OC)C(C)(C)C` [Example 28, 1-{4-[2-(1-Methyl-1-phenyl-ethyl)-2H-tetrazol-5-yl]-phenyl}-4(S)-hydroxy-2-N-(N-methoxycarbonyl-(L)-iso-leucyl)amino-5(S)-N-(N-methoxycarbonyl-(L)-tert-leucyl)amino-6-phenyl-2-azahexane] stands 0.083 µM.

For the compound `CC[C@H](C)[C@H](NC(=O)OC)C(=O)NN(Cc1ccc(-c2nnn[nH]2)cc1)C[C@H](O)[C@H](Cc1ccccc1)NC(=O)[C@@H](NC(=O)OC)C(C)(C)C` [Example 29, 1-[4-(Tetrazol-5-yl)-phenyl]-4(S)-hydroxy-2-N-(N-methoxycarbonyl-(L)-iso-leucyl)amino-5(S)-N-(N-methoxycarbonyl-(L)-tert-leucyl)amino-6-phenyl-2-azahexane], the IC50 was 0.014 µM. Under `CC[C@H](C)[C@H](NC(=O)OC)C(=O)NN(Cc1ccc(-c2nnn(C)n2)cc1)C[C@H](O)[C@H](Cc1ccccc1)NC(=O)[C@@H](NC(=O)OC)C(C)(C)C` [Example 30, 1-[4-(2-Methyl-2H-tetrazol-5-yl)-phenyl]-4(S)-hydroxy-2-N-(N-methoxycarbonyl-(L)-iso-leucyl)amino-5(S)-N-(N-methoxycarbonyl-(L)-tert-leucyl)amino-6-phenyl-2-azahexane] stands 0.054 µM; under `CC[C@H](C)[C@H](NC(=O)OC)C(=O)N[C@@H](Cc1ccccc1)[C@@H](O)CN(Cc1ccc(-c2nnn(C(C)(C)c3ccccc3)n2)cc1)NC(=O)[C@@H](NC(=O)OC)C(C)(C)C` [Example 31, 1-{4-[2-(1-Methyl-1-phenyl-ethyl)-2H-tetrazol-5-yl]-phenyl}-4(S)-hydroxy-2-N-(N-methoxycarbonyl-(L)-tert-leucyl)amino-5(S)-N-(N-methoxycarbonyl-(L)-iso-leucyl)amino-6-phenyl-2-azahexane], 0.171 µM. Regarding `COC(=O)N[C@H](C(=O)N[C@@H](Cc1ccccc1)[C@@H](O)CN(Cc1ccc(-c2nnn(C(C)(C)C)n2)cc1)NC(=O)[C@@H](NC(=O)OC)C(C)(C)C)C(C)(C)C` [Example 34, 1-[4-(2-tert-Butyl-2H-tetrazol-5-yl)-phenyl]-4(S)-hydroxy-5(S)-2,5-bis[N-(N-methoxycarbonyl-(L)-tert-leucyl)amino]-6-phenyl-2-azahexane], the IC50 was found to be 0.072 µM. As for `COC(=O)N[C@H](C(=O)N[C@@H](Cc1ccccc1)[C@@H](O)CN(Cc1ccc(-c2nnn(C(C)(C)C)n2)cc1)NC(=O)[C@@H](NC(=O)OC)C(C)(C)C)C(C)C` [Example 35, 1-[4-(2-tert-Butyl-2H-tetrazol-5-yl)-phenyl]-4(S)-hydroxy-2-N-(N-methoxycarbonyl-(L)-tert-leucyl)amino-5(S)-N-(N-methoxycarbonyl-(L)-valyl)amino-6-phenyl-2-azahexane], the IC50 worked out at 0.058 µM. For `COC(=O)N[C@H](C(=O)N[C@@H](Cc1ccccc1)[C@@H](O)CN(Cc1ccc(-c2ccccn2)cc1)NC(=O)[C@@H](NC(=O)OC)C(C)C)C(C)C` [Example 37, 1-[4-(Pyridin-2-yl)-phenyl]-4(S)-hydroxy-5(S)-2,5-bis[N-(N-methoxycarbonyl-(L)-valyl)amino]-6-phenyl-2-azahexane], the IC50 was 0.029 µM. Under `CCOC(=O)N[C@H](C(=O)N[C@@H](Cc1ccccc1)[C@@H](O)CN(Cc1ccc(-c2ccccn2)cc1)NC(=O)[C@@H](NC(=O)OCC)C(C)C)C(C)C` [Example 38, 1-[4-(Pyridin-2-yl)-phenyl]-4(S)-hydroxy-5(S)-2,5-bis[N-(N-ethoxycarbonyl-(L)-valyl)amino]-6-phenyl-2-azahexane] stands 0.085 µM; under `COC(=O)N[C@H](C(=O)N[C@@H](Cc1ccccc1)[C@@H](O)CN(Cc1ccc(-c2cccnc2)cc1)NC(=O)[C@@H](NC(=O)OC)C(C)C)C(C)C` [Example 39, 1-[4-(Pyridin-3-yl)-phenyl]-4(S)-hydroxy-5(S)-2,5-bis[N-(N-methoxycarbonyl-(L)-valyl)amino]-6-phenyl-2-azahexane], 0.012 µM; under `COC(=O)N[C@H](C(=O)N[C@@H](Cc1ccccc1)[C@@H](O)CN(Cc1ccc(-c2cnccn2)cc1)NC(=O)[C@@H](NC(=O)OC)C(C)C)C(C)C` [Example 40, 1-[4-(Pyrazin-2-yl)-phenyl]-4(S)-hydroxy-5(S)-2,5-bis[N-(N-methoxycarbonyl-(L)-valyl)amino]-6-phenyl-2-azahexane], 0.021 µM.
